In patent US8759367B2, “Compounds and methods for the prevention and treatment of cancer” (The Wistar Institute, priority 2010, dated 2014):

Tested on: GLI1-driven reporter activity mediated by exogenous SHH (Shh-light2 cells)
Assay: GLI-dependent firefly luciferase reporter assay in Shh-light2 cells treated with SHH
Format: cell-based
Settings: AKI0532 5, 2.5 or 1 μM in DMSO, alone (−SHH) or with SHH (+SHH), 2 days, FIG. 1
Procedure: Shh-light2 cells (3T3 clone stably transfected with a GLI-dependent firefly luciferase plasmid) were treated with carrier DMSO as control or AKI0532 (5, 2.5, or 1 μM in DMSO) either alone (−SHH) or in combination with SHH (+SHH) for 2 days.
For example, AKI0532 analogs shown in Table 1 can be subjected to a battery of tests that are commonly used to assess effects on SHH activity and to determine specificity. As exemplified herein for AKI0532, one screen involves examining the activation of the SHH pathway using the well-established cell line, SHH-Light2 cells. This cell line is a 3T3 clone that stably expresses a GLI-dependant firefly luciferase (Taipale, et al. (2000) Nature 406:1005-1009). […] Concentrations of each compound, ranging from 20 μM to 1 μM, can be tested. SHH-Light2 cells are seeded 24 hours prior to treatment. They were then cultured for an additional 48 hours in standard serum-containing media prior to analysis. GLI-binding site luciferase activities are measured using a commercially available luciferase reporter assay system. Treatment of SHH-Light2 cells with recombinant SHH (200 ng) results in strong induction of reporter activity. IC50 values are determined and are compared to that of AKI0532 in the same assay in order to assess which of the AKI0532 analogs have the highest levels of SHH inhibitory activity.

C[C@]12CCC(c3ccc(O)cc3)=CC1=CC[C@@]21Cc2ncccc2O1 [AKI0532]
GLI1-driven reporter activity mediated by exogenous SHH: inhibits GLI1-driven reporter activity mediated by exogenous SHH
